Test results: patent publication US4479951A, “1.4;3.6-Dianhydrohexitol nitrates substituted by purine bases, processes for their preparation and pharmaceutical compositions” (Dr. Willmar Schwabe GmbH & Co., priority 1980, dated 1984)
pIC50: −log10 of the molar value.

What was measured:
guinea pigs = test: blood pressure-lowering effectiveness on narcotised guinea pigs, intravenous; type: in vivo, guinea pig; details: for blood pressure previously: before administration
[1] = system: isolated rat aorta preparations; test: spasmolytic effectiveness, potassium chloride-induced contractions; details: read-out: ED50 potassium chloride spasm
[2] = acute toxicity, p.o. and i.p. (footnote of Table VII); type: in vivo; details: mouse, in vivo, ip
mouse = test: as above; type: in vivo; details: p.o.
mongrel cats = test: heart-circulation effectiveness on narcotised mongrel cats, intraduodenal administration; details: 5 mg/kg intraduodenal
Procedure: The animals were narcotised with a mixture of chloralose-urethane (1.2 g./kg. urethane+40 mg./kg. chloralose administered i.p.). They breathed spontaneously through a tracheal canula. The A. carotis sinistra was used in order to place a catheter tip monometer in the left chamber of the heart. The V. jugularis served for injection purposes. Via the A. femoralis dextra, a catheter was inserted up into the Aorta descendans and connected to a pressure recorder (Statham P 23Db). The heart frequency was recorded with a pulse frequency measurer (Firm Hugo Sachs Elektronik) from the left ventricular pressure signal. A duodenal loop was exposed by laparotomy. The substances to be tested were injected directly into the lumen.

[3] = acute toxicity, intravenous; type: in vivo; details: mouse, in vivo, iv; read-out: Evaluated LD50-range
female NMRI-albino mice = test: acute toxicity, intravenous; type: in vivo; details: mouse, in vivo
[4] = system: isolated rat aorta preparations; test: spasmolytic effectiveness, noradrenaline-induced contractions; details: read-out: ED50 noradrenaline spasm
[5] = printed on the 0 min line (= change 0 to 10 min)
[6] = printed on the 10 min line (= change 0 to 30 min)
[7] = printed on the 30 min line (= change 0 to 60 min)
[8] = printed on the 60 min line (= change 0 to 120 min)

## Nc1ncnc2c1ncn2[C@H]1CO[C@H]2[C@@H]1OC[C@@H]2O[N+](=O)[O-] [1c/2c, 5-(9-Adenyl)-5-desoxy-1.4;3.6-dianhydro-L-iditol 2-nitrate]
Guinea pigs; 0.25 mg/kg i.v.
  blood pressure afterwards: 50.50 ± 2.33 mm. Hg
  blood pressure Δ: -17.75 mm. Hg
  blood pressure previously: 68.25 ± 2.50 mm. Hg
Guinea pigs; 1.00 mg/kg i.v.
  blood pressure afterwards: 41.50 ± 3.97 mm. Hg
  blood pressure Δ: -28.00 mm. Hg
  blood pressure previously: 69.50 ± 2.90 mm. Hg
Guinea pigs; 2.50 mg/kg i.v.
  blood pressure afterwards: 38.75 ± 2.66 mm. Hg
  blood pressure Δ: -31.25 mm. Hg
  blood pressure previously: 70.00 ± 2.27 mm. Hg
Guinea pigs; i.v.
  blood pressure-lowering effectiveness, comparison: even more effective than ISDN
[1]
  pIC50: 5.55
[2]
  LD50: 540 mg/kg
mouse
  LD70 p.o. mouse: 1600 mg/kg
Mongrel cats; 0 min
  blood pressure: 124.2 ± 8.3 mm. Hg
  dp/dt: 7220 ± 611 mm sec
  heart frequency: 171.6 ± 6.2 min⁻¹
Mongrel cats; 10 min
  blood pressure: 108.6 ± 8.5 mm. Hg
  dp/dt: 7500 ± 522 mm sec
  heart frequency: 180.4 ± 4.3 min⁻¹
Mongrel cats; 30 min
  blood pressure: 107.8 ± 8.4 mm. Hg
  dp/dt: 6960 ± 564 mm sec
  heart frequency: 177.2 ± 5.4 min⁻¹
Mongrel cats; 60 min
  blood pressure: 106.6 ± 7.8 mm. Hg
  dp/dt: 7100 ± 721 mm sec
  heart frequency: 177.6 ± 5.1 min⁻¹
Mongrel cats; 120 min
  blood pressure: 106.2 ± 5.6 mm. Hg
  dp/dt: 7000 ± 1026 mm sec
  heart frequency: 178.8 ± 4.4 min⁻¹
Mongrel cats; [5]
  blood pressure Δ: -15.6 mm. Hg
  dp/dt Δ: +280 mm sec
Mongrel cats; [6]
  blood pressure Δ: -16.4 mm. Hg
  dp/dt Δ: -260 mm sec
Mongrel cats; [7]
  blood pressure Δ: -17.6 mm. Hg
  dp/dt Δ: -120 mm sec
Mongrel cats; [8]
  blood pressure Δ: -18.0 mm. Hg
  dp/dt Δ: -220 mm sec
[3]
  LD50 at 24 h: > 200 mg/kg
Female NMRI-albino mice
  Frequency of death: 0/6
[4]
  pIC50: 6.87
